Where a name gives a salt, the structure may show the parent alone.
Experiments:
[1] = tested on: HCT116; settings: 72 h
Description: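 HCT116 control and MTA1-KO (CRISPR) HCT116 cells were seeded in 384-well plates (800 cells/well), treated 16 h later with 237 metabolism-related anticancer drugs at five doses (10 uM, 2 uM, 400 nM, 80 nM, 16 nM) for 72 h, two replicates; viability by CCK8. Values are % inhibition of viability relative to untreated cells, plus fitted IC50.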

[2] = tested on: HCT116; experiment: viability inhibition vs untreated; higher = more cytotoxic; settings: 72 h

Structure (SMILES)	IC50 ([1]; genotype: MTA1-KO) [µM]	IC50 ([1]; genotype: control) [µM]	viability inhibition ([2]; genotype: MTA1-KO, 16 nM) [%]	viability inhibition ([2]; genotype: MTA1-KO, 80 nM) [%]	viability inhibition ([2]; genotype: MTA1-KO, 400 nM) [%]	viability inhibition ([2]; genotype: MTA1-KO, 2000 nM) [%]	viability inhibition ([2]; genotype: MTA1-KO, 10000 nM) [%]	viability inhibition ([2]; genotype: control, 16 nM) [%]	viability inhibition ([2]; genotype: control, 80 nM) [%]	viability inhibition ([2]; genotype: control, 400 nM) [%]	viability inhibition ([2]; genotype: control, 2000 nM) [%]	viability inhibition ([2]; genotype: control, 10000 nM) [%]
S=c1nc[nH]c2nc[nH]c12 [Mercaptopurine]	6.61	2.74	-23.8	-26.8	-16.8	-13.3	63	-20.2	-15.2	-11.9	24.6	90.5
O=C(O)CCC(=O)c1ccc(-c2ccccc2)cc1 [Fenbufen]	> 10	> 10	-12.7	-18.9	-14.3	3.54	-0.929	3.15	8.7	7.49	6.47	10.4
O=c1[nH]c(-c2ccc(C(F)(F)F)cc2)nc2c1CSCC2 [XAV939]	> 10	> 10	1.12	-14.7	-18	-23.8	-14.9	4.99	12.8	0.365	4.5	0.791
CC(=O)Nc1ccc(NC(=S)NC(=O)c2ccc(C(C)(C)C)cc2)cc1 [Tenovin-1]	0.456	0.931	-26.3	-21.8	12.8	59.2	62.3	-20.9	-18.3	3.67	73.1	90.4
Cc1nc(Nc2ccc(F)cc2)nc(N2CCc3ccccc3C2C)c1C (stereo not drawn) [Revaprazan hydrochloride]	> 10	> 10	-4.67	-1.6	-2.29	-13.6	-33.6	20.9	17.7	11	7.17	-10.8
CO[C@H]1C[C@@H]2CC[C@@H](C)[C@@](O)(O2)C(=O)C(=O)N2CCCC[C@H]2C(=O)O[C@H]([C@H](C)C[C@@H]2CC[C@@H](OC(=O)C(C)(CO)CO)[C@H](OC)C2)CC(=O)[C@H](C)/C=C(\C)[C@@H](O)[C@@H](OC)C(=O)[C@H](C)C[C@H](C)/C=C/C=C/C=C/1C [Temsirolimus]	< 0.016	> 10	56.3	49.2	48.4	46.7	60.5	12	10.7	8.05	-1.62	46.1
c1ccc(-c2ccc(C(c3ccccc3)n3ccnc3)cc2)cc1 (stereo not drawn) [Bifonazole]	> 10	> 10	-14.7	-10.9	-14.8	-16.2	16.8	7.85	-6.02	-12.2	-12	18.9
c1ccc2c(CCNc3ccc(Nc4ccncc4)cc3)c[nH]c2c1 [Serdemetan]	1.66	2.48	10.9	7.55	13.6	65.6	107	10.5	10.9	5.2	5.93	85.1
Cc1cc(C2CCCCC2)n(O)c(=O)c1 [Ciclopirox ethanolamine]	7.38	1.88	-18	-22.5	-14.4	-5.78	54.5	-10.2	5.38	5.2	46.4	91.6
CCN[C@H]1CN(CCCOC)S(=O)(=O)c2sc(S(N)(=O)=O)cc21 [Brinzolamide]	> 10	> 10	-13.1	-25.7	-24.4	-29.9	-25.2	-12.4	-11.9	-8.93	-15.3	-13.6
Cc1ccc(C(=O)Cn2c3c(sc2=N)CCCC3)cc1 [Pifithrin-α]	> 10	> 10	-1.55	-3.09	-7.19	3.88	32	9.06	2.07	21.3	9.85	22.1
CC(C)c1nc(N(C)S(C)(=O)=O)nc(-c2ccc(F)cc2)c1/C=C/[C@@H](O)C[C@@H](O)CC(=O)O [Rosuvastatin]	> 10	> 10	-4.22	-8.46	-10.3	-11.2	-10.9	-1.14	-8.14	4.9	-10.3	31.2
CCC(=O)N1CCN(c2ccc(-n3c(=O)ccc4cnc5ccc(-c6cnc7ccccc7c6)cc5c43)cc2C(F)(F)F)CC1 [Torin 1]	0.324	1.8	2.4	8.65	52	70.7	80.9	-14.3	-3.02	4.25	56	62.3
CO[C@H]1C[C@@H]2CC[C@@H](C)[C@@](O)(O2)C(=O)C(=O)N2CCCC[C@H]2C(=O)O[C@H]([C@H](C)C[C@@H]2CC[C@H](n3cnnn3)[C@H](OC)C2)CC(=O)[C@H](C)/C=C(\C)[C@@H](O)[C@@H](OC)C(=O)[C@H](C)C[C@H](C)/C=C/C=C/C=C/1C [Zotarolimus]	2.07	> 10	5.1	-1.86	2.56	34.7	69.3	-4.9	-11.3	-9.38	-17.6	9.36

Reference: the supplement of paper PMC10477900
